In one experiment the test system is rice. The experiment is described as follows: Postemergent control of plant species. As to conditions: Oryza sativa, post-emergence, 336 h, read-out: percent postemergent control. Type of experiment: in vivo, Oryza sativa. The method, then:
(§1) In representative operations, each compound to be utilized in a series of tests is dissolved in acetone to one-half of the final volume (twice the final concentration) to be used and the acetone solution in each case is admixed with an equal volume of water containing 0.1 percent by weight of surface active material. The compositions, generally in the nature of an emulsion, were employed to spray separate respective plant species which had been grown to a 2-4 leaf stage in soil of good nutrient content in a greenhouse. The various beds were positioned side by side and exposed to substantially identical conditions of temperature and light. Each bed was maintained so as to prevent any interaction with test compounds in different seed beds. Other plants were left untreated to serve as controls. After treatment, the plants were maintained for about two weeks under greenhouse conditions conducive for good plant growth and watered as necessary. Control refers to the reduction in growth compared to the observed results of the same untreated species.

The test system of the next experiment is johnson grass. The experiment is described as follows: Postemergent control of plant species. The class given is in vivo, Sorghum halepense. As to conditions: Sorghum halepense, post-emergence, 336 h, read-out: percent postemergent control. The method, then: as §1
A further experiment concerns yellow foxtail. Description: Postemergent control of plant species. The class given is in vivo, Setaria lutescens. As to conditions: Setaria, post-emergence, 336 h, read-out: percent postemergent control. Here is the method:
as §1

The test system of the next experiment is wild oats. Description: Postemergent control of plant species. Type of experiment: in vivo, Avena fatua. As to conditions: Avena fatua, post-emergence, 336 h, read-out: percent postemergent control. The method, then:
as §1

Another experiment concerns pigweed. Description: Postemergent control of plant species. Type of experiment: in vivo, Amaranthus spp. As to conditions: Amaranthus retroflexus, post-emergence, 336 h, read-out: percent postemergent control. The method, then: as §1
A further experiment concerns sugar beet. The experiment is described as follows: Postemergent control of plant species. Type of experiment: in vivo, Beta saccharifera. The note with it: Beta vulgaris, post-emergence, 336 h, read-out: percent postemergent control. Here is the method:
as §1

Experiment [1] has as its system nitrification of ammonium nitrogen. The experiment is described as follows: Suppression of nitrification of ammonium nitrogen in soil. As to conditions: 27° C. The gist of the method:
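Value is % NH4-N remaining after a two-week, 27° C incubation of treated soil held at 1/3 bar tension moisture. Nitrate was measured with an ion-selective electrode after extraction with ammonium sulfate solution and 10 min shaking.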

The next experiment deals with cotton. Description: Postemergent control of plant species. Type of experiment: in vivo, Gossypium spp. The note with it: Gossypium hirsutum, post-emergence, 336 h, read-out: percent postemergent control. Here is the method: as §1
In a further experiment the test system is rape. Description: Postemergent control of plant species. Type of experiment: in vivo, Brassica napus. As to conditions: Brassica napus, post-emergence, 336 h, read-out: percent postemergent control. Here is the method: as §1
For a further experiment, the system named is annual morning glory. Description: Postemergent control of plant species. Type of experiment: in vivo, Ipomoea spp. As to conditions: Ipomoea, post-emergence, 336 h, read-out: percent postemergent control. Here is the method:
as §1

For the next experiment, the system named is yellow nutsedge. Description: Postemergent control of plant species. Type of experiment: in vivo, Cyperus esculentus. As to conditions: Cyperus, post-emergence, 336 h, read-out: percent postemergent control. The method, then: as §1
In a further experiment the test system is wheat. The experiment is described as follows: Postemergent control of plant species. The class given is in vivo, Triticum aestivum. The note with it: Triticum aestivum, post-emergence, 336 h, read-out: percent postemergent control. The method, then: as §1
The test system of a further experiment is velvetleaf. Description: Postemergent control of plant species. Type of experiment: in vivo, Abutilon theophrasti. As to conditions: Abutilon theophrasti, post-emergence, 336 h, read-out: percent postemergent control. The method, then: as §1
The next experiment concerns jimsonweed. Description: Postemergent control of plant species. The note with it: Datura stramonium, post-emergence, 336 h, read-out: percent postemergent control. The class given is in vivo, Datura stramonium. The method, then: as §1
The subject of the next experiment is corn. Description: Postemergent control of plant species. The class given is in vivo, Zea mays. As to conditions: Zea mays, post-emergence, 336 h, read-out: percent postemergent control. Here is the method:
as §1

Another experiment deals with crabgrass. Description: Postemergent control of plant species. The class given is in vivo, Digitaria spp. As to conditions: Digitaria sanguinalis, post-emergence, 336 h, read-out: percent postemergent control. Here is the method:
as §1

For another experiment, the system named is sorghum. The experiment is described as follows: Postemergent control of plant species. The class given is in vivo, Sorghum vulgare. The note with it: Sorghum, post-emergence, 336 h, read-out: percent postemergent control. The method, then: as §1
The subject of the next experiment is barnyardgrass. The experiment is described as follows: Postemergent control of plant species. The class given is in vivo, Echinochloa crusgalli. The note with it: Echinochloa crus-galli, post-emergence, 336 h, read-out: percent postemergent control. The method, then:
as §1

A further experiment relates to soybean. Description: Postemergent control of plant species. The class given is in vivo, Glycine max. The note with it: Glycine max, post-emergence, 336 h, read-out: percent postemergent control. Here is the method:
as §1

Molecules are shown by their SMILES.

As to `CCOC(=O)CN(c1c(C)cccc1C(=O)OC)S(=O)(=O)c1nc2nc(C)cc(C)n2n1` [Compound 266], the plant injury at 500 ppm with rice was 40%; with sugar beet, 30%; with cotton, 10%; in the experiment on rape it was 75%; in the experiment with wheat, 0%; in the experiment with corn, 0%. The plant injury at 500 ppm with sorghum was found to be 0%; in the experiment with soybean it was 80%. Besides, the pest or weed control at 500 ppm with johnson grass was 0%; in the experiment on yellow foxtail it was 80%; in the experiment on wild oats it was 0%; in the experiment on pigweed, 25%; with annual morning glory it was 85%; with yellow nutsedge it was 0%. In addition, the pest or weed control at 500 ppm in the experiment with velvetleaf stood at 75%; in the experiment on jimsonweed, 90%; in the experiment with crabgrass it was 70%; with barnyardgrass, 75%. Further, the “% NH4-N Remaining After 2 Weeks Incubation” value in [1] (0.06 ppm) came to 0%; in [1] (0.25 ppm) it was 0%; in experiment [1] (1 ppm), 2%; in experiment [1] (4 ppm), 13%.
`COC(=O)c1cccc(C)c1N(C)S(=O)(=O)c1nc2nc(C)cc(C)n2n1` [Compound 261]: the plant injury at 500 ppm with rice amounted to 0%; in the experiment on sugar beet, 90%; with cotton, 60%; with rape, 95%; in the experiment on wheat, 0%; with corn, 0%. Moreover, the plant injury at 500 ppm stood at 30% in the experiment on sorghum and 90% in the experiment on soybean. In addition, the pest or weed control at 500 ppm amounted to 100% in the experiment with johnson grass; 95% with yellow foxtail; 0% in the experiment on wild oats; 65% in the experiment with pigweed; 90% with annual morning glory; 0% in the experiment on yellow nutsedge. The pest or weed control at 500 ppm came out at 95% with velvetleaf, 95% in the experiment with jimsonweed, 10% in the experiment on crabgrass and 20% in the experiment with barnyardgrass. In addition, the “% NH4-N Remaining After 2 Weeks Incubation” value in experiment [1] (0.06 ppm) was found to be 0%; in experiment [1] (0.25 ppm), 0%; in experiment [1] (1 ppm), 21%; in [1] (4 ppm), 18%.
Regarding `C=CCN(c1c(Cl)cccc1Cl)S(=O)(=O)c1nc2nc(C)cc(C)n2n1` [Compound 263], the plant injury at 500 ppm turned out to be 85% in the experiment on rice; 100% in the experiment with sugar beet; 50% in the experiment with cotton; 100% in the experiment on rape; 0% with wheat; 0% in the experiment on corn. The values for the plant injury at 500 ppm with sorghum and in the experiment with soybean were 70% and 0%, respectively. The pest or weed control at 500 ppm came out at 100% in the experiment on johnson grass; 95% in the experiment with yellow foxtail; 0% in the experiment on wild oats; 90% in the experiment with pigweed; 80% in the experiment with annual morning glory; 0% in the experiment on yellow nutsedge. For the same compound, the pest or weed control at 500 ppm in the experiment on velvetleaf was 40%; in the experiment with jimsonweed, 80%; in the experiment with crabgrass it was 90%; in the experiment on barnyardgrass, 40%. For the same compound, the “% NH4-N Remaining After 2 Weeks Incubation” value in experiment [1] (0.06 ppm) came out at 0%; in experiment [1] (0.25 ppm) it was 0%; in [1] (1 ppm) it was 87%; in experiment [1] (4 ppm) it was 11%.
On to `Cc1cc(C)n2nc(S(=O)(=O)N(C)c3c(Cl)cccc3Cl)nc2n1` [Compound 260, 5,7,N-trimethyl-N-(2,6-dichlorophenyl)-1,2,4-triazolo[1,5-a]pyrimidine-2-sulfonamide], for which the plant injury at 500 ppm with rice was 0%; in the experiment on sugar beet it was 100%; with cotton, 80%; with rape, 95%; in the experiment on wheat, 0%; with corn it was 0%. In addition, the values for the plant injury at 500 ppm with sorghum and with soybean were 25% and 90%, respectively. Also, the pest or weed control at 500 ppm with johnson grass is 95%; in the experiment with yellow foxtail, 90%; in the experiment with wild oats, 0%; in the experiment on pigweed it was 45%; in the experiment on annual morning glory it was 40%; in the experiment on yellow nutsedge it was 0%. Further, the pest or weed control at 500 ppm with velvetleaf was 90%; in the experiment with jimsonweed, 95%; in the experiment with crabgrass, 0%; in the experiment on barnyardgrass, 50%. For the same compound, the “% NH4-N Remaining After 2 Weeks Incubation” value in [1] (0.06 ppm) is on record as 0%; in experiment [1] (0.25 ppm), 14%; in experiment [1] (1 ppm), 37%; in [1] (4 ppm), 45%.
For the compound `Cc1cc(C)n2nc(S(=O)(=O)N(Cc3ccccc3)c3c(Cl)cccc3Cl)nc2n1` [Compound 265], the plant injury at 500 ppm with rice stood at 0%; with sugar beet it was 80%; in the experiment with cotton, 0%; with rape, 60%; with wheat, 0%; with corn it was 0%. Besides, the plant injury at 500 ppm in the experiment with sorghum was determined as 0%; with soybean, 40%. The pest or weed control at 500 ppm in the experiment with johnson grass was found to be 0%; in the experiment on yellow foxtail, 0%; in the experiment with wild oats, 0%; in the experiment with pigweed it was 70%; in the experiment on annual morning glory, 60%; with yellow nutsedge it was 0%. The pest or weed control at 500 ppm with velvetleaf, in the experiment with jimsonweed, in the experiment on crabgrass and with barnyardgrass was 0% throughout. Also, the “% NH4-N Remaining After 2 Weeks Incubation” value in [1] (0.06 ppm) stood at 0%; in experiment [1] (0.25 ppm), 0%; in experiment [1] (1 ppm) it was 0%; in experiment [1] (4 ppm), 17%.

The record behind these values is US4740233A, “Substituted 1,2,4-triazolo[1,5-a]-pyrimidine-2-sulfonamides and compositions and methods of controlling undesired vegetation and suppressing the nitrification of ammonium nitrogen in soil” (The Dow Chemical Company, priority 1986, dated 1988).
